Laboratory results reported in patent publication US20100016335A1, “NOVEL AMINOPYRIDINE DERIVATIVES HAVING AURORA A SELECTIVE INHIBITORY ACTION” (priority 2006, published 2010).
Where a name gives a salt, the structure may show the parent alone.

What was measured:
[1] = molecular target: T1, human Aurora A (Homo sapiens, UniProt O14965); test: Aurora A inhibitory activity (IMAP fluorescence polarization phosphorylation assay); format: biochemical; conditions: 20 μM ATP, 30° C., 120 minutes
T1 construct: His (N); made in house; host or cells: Escherichia coli BL21-CodonPlus(DE3)-RIL
T1 sequence (O14965 1-403): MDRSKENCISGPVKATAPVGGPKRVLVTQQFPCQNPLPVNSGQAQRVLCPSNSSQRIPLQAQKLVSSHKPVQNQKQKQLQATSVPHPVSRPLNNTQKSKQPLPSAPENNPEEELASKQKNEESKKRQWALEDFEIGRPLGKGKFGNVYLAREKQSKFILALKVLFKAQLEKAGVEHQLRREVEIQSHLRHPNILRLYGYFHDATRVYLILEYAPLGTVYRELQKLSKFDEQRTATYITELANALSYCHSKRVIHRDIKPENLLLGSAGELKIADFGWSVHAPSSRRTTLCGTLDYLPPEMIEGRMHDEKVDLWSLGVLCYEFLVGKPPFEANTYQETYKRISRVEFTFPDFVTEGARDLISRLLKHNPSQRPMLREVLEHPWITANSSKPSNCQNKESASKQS
Excerpt: cDNA of N-terminal His-tagged human Aurora A was integrated into an expression vector, which was then highly expressed in Escherichia coli BL21-CodonPlus(DE3)-RIL cells. The Escherichia coli was harvested and lysed, and then the His-tagged human Aurora A protein was applied onto a nickel chelate column and eluted from the column with imidazole. The active fractions were desalted with a desalting column to give a purified enzyme.
For the phosphorylation reaction, the method by Upstate, Inc. [Kinase Profiler™ Assay Protocols] was referred to, and phosphorylation of the substrate was detected using IMAP® technology (Molecular Devices, Co. Ltd.) (Gaudet E W. et. al, J. Biomol. Screen, 8, 164-175 (2003)). Concretely, the phosphorylation reaction and the detection were carried out as follows:
The phosphorylation reaction was conducted using 384 well plate, and the reaction volume was 10 μl/well. The reaction buffer is comprised of 50 mM Tris-chloride buffer (pH 7.4), 15 mM magnesium acetate, and 0.2 mM ethylenediamine-N,N,N′,N′-tetraacetic acid (EDTA). Thereto, the purified Aurora A protein, 100 nM of the peptide substrate, and 20 μM of adenosine 5′-triphosphate (ATP) were added, and then the reaction was carried out at 30° C. for 120 minutes.
Thereafter, in order to terminate and detect the reaction, 30 μl of the IMAP (registered trademark) binding reagent (IMAP Progressive Binding Reagent, R7284) that had been diluted (1:400) in the 1×IMAP binding buffer A (IMAP Progressive Binding Buffer A, 5× stock, R7282) was added to each well. The solution stood still for 60 minutes in the dark, and then fluorescence polarization was measured using a high-end microplate reader (excitation wavelength: 485 nm; emission wavelength: 520 nm).
(§1) The compound to be tested was added to the reaction system such that a dilution series of the compound in dimethylsulfoxide (DMSO) was prepared, and then 0.5 μL of this solution was added for the testing to each well. Each control well was provided by adding 0.5 μL of DMSO to the well in place of the DMSO solution containing the compound to be tested.

[2] = molecular target: T2, GST-tagged human Aurora B(AurB)/His-tagged human INCENP complex proteins (Homo sapiens, UniProt Q96GD4); test: Aurora B inhibitory activity (Method A, IMAP assay kit); format: biochemical; conditions: 40 μM ATP, 25° C., 45 minutes
T2 construct: GST; purchased Carna Biosciences, Inc
Description: An assay development kit for IMAP (registered trademark) (Aurora B), purchased from Carna Biosciences, Inc., was used for phosphorylation reaction, and the phosphorylation of a substrate was detected using the IMAP technology. […] Using the same, the phosphorylation reaction was conducted in accordance with a partially revised protocol attached to the kit, and then the phosphorylation of the substrate was detected using the IMAP technology.
For the phosphorylation reaction, 384 well plate was used, and the reaction volume was 10 μl/well. The composition of the reaction buffer (assay buffer) is comprised of 20 mM of HEPES buffer (pH 7.4), 0.01% Tween-20, and 2 mM of dithiothreitol (DTT). Thereto, AurB/INCENP complex protein, 100 nM of the substrate, and 40 μM of ATP, and 1 mM of magnesium salt were added, and then the reaction was conducted at 25° C. for 45 minutes. Thereafter, in order to terminate and detect the reaction, 30 μl of the IMAP (registered trademark) binding reagent (IMAP Progressive Binding Reagent, R7284) that had been diluted (1:400) in the 1× IMAP binding buffer A (IMAP Progressive Binding Buffer A, 5× stock, R7282) was added to each well.
as §1, with “DMSO” for “dimethylsulfoxide (DMSO)”

T2 sequence (Q96GD4 whole entry): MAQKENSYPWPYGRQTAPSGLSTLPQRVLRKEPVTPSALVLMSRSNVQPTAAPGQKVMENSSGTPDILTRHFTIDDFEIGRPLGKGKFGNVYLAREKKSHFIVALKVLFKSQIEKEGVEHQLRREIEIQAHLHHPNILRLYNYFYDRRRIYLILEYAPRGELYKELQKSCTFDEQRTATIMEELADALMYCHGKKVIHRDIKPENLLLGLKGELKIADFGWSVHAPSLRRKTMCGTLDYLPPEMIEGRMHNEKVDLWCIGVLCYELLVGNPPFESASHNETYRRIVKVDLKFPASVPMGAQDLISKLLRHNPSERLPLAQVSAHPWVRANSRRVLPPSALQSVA
T2 sequence (Q9NQS7 803-916 partner limits assumed): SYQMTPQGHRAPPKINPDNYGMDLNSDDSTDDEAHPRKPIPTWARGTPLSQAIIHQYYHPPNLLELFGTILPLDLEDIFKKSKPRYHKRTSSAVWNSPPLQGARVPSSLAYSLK

Compound	IC50 [1] [nM]	IC50 [2] [nM]
CNC(=O)[C@]1(Cc2cccc(Nc3cc[nH]n3)n2)CC[C@@H](Oc2cccc(Cl)c2F)CC1 [Example 12, trans-4-(3-chloro-2-fluorophenoxy)-N-methyl-1-((6-(1H-pyrazol-3-ylamino)pyridin-2-yl)methyl)cyclohexanecarboxamide]	2.5	> 1000
O=C(O)[C@]1(Cc2cccc(Nc3cc[nH]n3)n2)CC[C@@H](Oc2cccc(Cl)c2F)CC1 [Example 10, trans-4-(3-chloro-2-fluorophenoxy)-1-((6-(1H-pyrazol-3-ylamino)pyridin-2-yl)methyl)cyclohexanecarboxylic acid trifluoroacetate]	0.15	200
O=C(O)[C@]1(Cc2cccc(Nc3nccs3)n2)CC[C@@H](Oc2cccc(C(F)(F)F)c2)CC1 [Example 7, trans-1-((6-(1,3-thiazol-2-ylamino)pyridin-2-yl)methyl)-4-(3-(trifluoromethyl)phenoxy)cyclohexanecarboxylic acid hydrochloride]	0.17	130
CC(=O)N[C@]1(Cc2cccc(Nc3nccs3)n2)CC[C@@H](Oc2cccc(Cl)c2F)CC1 [Example 19, N-(trans-4-(3-chloro-2-fluorophenoxy)-1-((6-(1,3-thiazol-2-ylamino)pyridin-2-yl)methyl)cyclohexyl)acetamide]	0.82	320
O=C(O)[C@]1(Cc2cccc(Nc3nccs3)n2)CC[C@@H](Oc2cccc(Cl)c2)CC1 [Example 5, trans-4-(3-chlorophenoxy)-1-((6-(1,3-thiazol-2-ylamino)pyridin-2-yl)methyl)cyclohexanecarboxylic acid hydrochloride]	0.12	130
N#C[C@]1(Cc2cccc(Nc3cc[nH]n3)n2)CC[C@@H](Oc2cccc(Cl)c2F)CC1 [Example 16, trans-4-(3-chloro-2-fluorophenoxy)-1-((6-(1H-pyrazol-3-ylamino)pyridin-2-yl)methyl)cyclohexanecarbonitrile]	1.6	> 1000
Fc1c(Cl)cccc1O[C@H]1CC[C@](Cc2cccc(Nc3cc[nH]n3)n2)(c2nn[nH]n2)CC1 [Example 17, 6-((trans-4-(3-chloro-2-fluorophenoxy)-1-(2H-tetrazol-5-yl)cyclohexyl)methyl)-N-1H-pyrazol-3-ylpyridin-2-amine trifluoroacetate]	0.45	350

Next, values leading:

IC50 [1] [nM]	IC50 [2] [nM]	Compound
0.18	110	Cc1cc(Nc2cc[nH]n2)nc(C[C@]2(c3n[nH]c(=O)o3)CC[C@H](Oc3cccc(Cl)c3F)CC2)n1 [Example 41, 5-(trans-4-(3-chloro-2-fluorophenoxy)-1-((4-methyl-6-(1H-pyrazol-3-ylamino)pyrimidin-2-yl)methyl)cyclohexyl)-1,3,4-oxadiazol-2(3H)-one trifluoroacetate]
0.23	142	Fc1c(O[C@H]2CC[C@](Cc3cccc(Nc4cc[nH]n4)n3)(c3n[nH]c(=S)o3)CC2)cccc1C(F)(F)F [Example 42, 5-(trans-4-(2-fluoro-3-(trifluoromethyl)phenoxy)-1-((6-(1H-pyrazol-3-ylamino)pyridin-2-yl)methyl)cyclohexyl)-1,3,4-oxadiazole-2(3H)-thione trifluoroacetate]
3.5	710	Cc1nnc([C@]2(Cc3cccc(Nc4cc[nH]n4)n3)CC[C@@H](Oc3cccc(C(F)(F)F)c3F)CC2)s1 [Example 28, 6-((trans-4-(2-fluoro-3-(trifluoromethyl)phenoxy)-1-(5-methyl-1,3,4-thiadiazol-2-yl)cyclohexyl)methyl)-N-1H-pyrazol-3-ylpyridin-2-amine]
2.8	> 1000	N=c1[nH]nc([C@]2(Cc3cccc(Nc4cc[nH]n4)n3)CC[C@@H](Oc3cccc(C(F)(F)F)c3F)CC2)o1 [Example 21, 6-((trans-4-(2-fluoro-3-(trifluoromethyl)phenoxy)-1-(5-imino-4,5-dihydro-1,3,4-oxadiazol-2-yl)cyclohexyl)methyl)-N-1H-pyrazol-3-ylpyridin-2-amine trifluoroacetate]
